Data: patent US20210283099A1, “CDC7 KINASE INHIBITORS AND USES THEREOF” (SLOAN-KETTERING INSTITUTE FOR CANCER RESEARCH, priority 2010, published 2021)

Tests used:
Experiment in all cases: Cytotoxicity assay (Alamar blue)
Type in all cases: cell-based
HL60 = conditions: HL-60, Human Acute Promyelocytic leukemia
Protocol: (§1) FIGS. 16A-16B. Granaticin A and Granaticin B inhibit multiple tumor types: The indicated cell lines and primary patient samples were tested against the compounds listed in standard cytotoxicity assays (12 point dose response using Alamar blue reduction as an indicator of cell viability). Assays were done in triplicate and IC50 determinations were run in 12-point serial dilutions from […] to 5 nM. […] These include ras and EGFR gatekeeper mutation containing cell lines in addition to p53 mutant cell lines and other known chemotherapy resistant cell lines. Specifically, this included multi-drug resistance phenotype (MDR-overexpressing) cell lines from multiple hematologic and solid tumor cell lines. Table 1 highlights a series of primary patient leukemia samples-both acute and chronic and treatment naïve and refractory tested against granaticins A and B and Derivatives 1 and 2 (see Examples).

JEKO = conditions: Human Mantle Cell Lymphoma
Protocol: as §1

RH30 = conditions: Human rhabdomyosarcoma, P53 mutation
Protocol: as §1

MEG01 = conditions: MEG-01, Human CML transformed to acute Megakaryoblastic leukemia
Protocol: as §1

MDA-MB -231 = conditions: human metastatic breast adenocarcinoma, estrogen, progesterone, and HER2/NEU receptor negative
Protocol: as §1

MCF-10A = conditions: human normal mammary epithelium
Protocol: as §1

MOLT3 = conditions: MOLT-3, Human Acute Lympholastic T-cell Leukemia
Protocol: as §1

HL60 MX2 = conditions: Homo sapiens, MDR variant of HL60 selected with mitoxantrone-clone 2
Protocol: as §1

A549 = conditions: Human lung adenocarcinoma, G12S KRAS mutation
Protocol: as §1

HELA N10 = conditions: human cervical adenocarcinoma (positive for human papillomavirus infection)
Protocol: as §1

JOHO = conditions: Homo sapiens, Patient sample of primary refractory AML with inv3 and monosomy 7 (refractory to allogeneic BMT)
Protocol: as §1

H820 = conditions: NCI-H820, human lung adenocarcinoma, Del E746-E749 and T790M EGFR mutations
Protocol: as §1

JAKL = conditions: Homo sapiens, Patient sample of CLL with trisomy of chromosome 12 and unmutated Ig heavy chain locus
Protocol: as §1

MAWI = conditions: Homo sapiens, Patient sample of relpased/refractory AML with normal cytogenetics
Protocol: as §1

MESO47 = conditions: human mesothelioma, WT-1 overexpression
Protocol: as §1

MAWI B = conditions: Homo sapiens, Patient sample of secondary chronic myelogenous leukemia
Protocol: as §1

JAQU = conditions: Homo sapiens, Patient sample of relapsed/refractory pre-B cell acute lymphoblastic leukemia
Protocol: as §1

PAPR = conditions: Homo sapiens, Patient sample of relapsed acute myelomonocytic leukemia
Protocol: as §1

H2444 = conditions: NCI-H2444, human lung adenocarcinoma, G12V KRAS mutation
Protocol: as §1

GLHU = conditions: Homo sapiens, Patient sample of Chronic Myelogenous leukemia
Protocol: as §1

JABR = conditions: Homo sapiens, Patient sample of relpased/refractory AML with normal cytogenetics and Flt-3 ITD
Protocol: as §1

ALL3 = conditions: Human Acute Lymphoblastic leukemia, Philadelphia chromosome positive
Protocol: as §1

H460 = conditions: NCI-H460, human large cell lung carcinoma, Q61H KRAS mutation
Protocol: as §1

MIHA = conditions: Homo sapiens, Patient sample of relapsed/refractory acute biphenotypic leukemia (refractory to allogeneic bone marrow transplant)
Protocol: as §1

H1975 = conditions: NCI-H1975, Human lung adenocarcinoma, T790M/L858R EGFR mutation, R273H p53 mutation, PTEN null, wild-type KRAS
Protocol: as §1

SKMEL28 = conditions: SK-MEL-28, Human melanoma
Protocol: as §1

H1734 = conditions: NCI-H1734, Human lung adenocarcinoma, G13C KRAS mutation
Protocol: as §1

HCC827 = conditions: human lung adenocarcinoma, DelE746-A750 EGFR mutation
Protocol: as §1

PC9 = conditions: PC-9, Human lung adenocarcinoma, DelE746-A750 EGFR mutation
Protocol: as §1

H2030 = conditions: NCI-H2030, human lung adenocarcinoma, wild-type EGFR, G12C KRAS mutation, G262V P53 mutation, PTEN null
Protocol: as §1

Y79 = conditions: Human retinoblastoma
Protocol: as §1

HTB15 = conditions: Human Glioblastoma (U-118MG)
Protocol: as §1

NCEB1 = conditions: Human Mantle Cell Lymphoma
Protocol: as §1

HPLD1 = conditions: Immortalized human bronchiolar epithelial cell with SV-40 Large T antigen
Protocol: as §1

K562 = conditions: Human Chronic Myelogenous leukemia transformed to acute erythroleukemia
Protocol: as §1

| SMILES | IC50 (HL60) | IC50 (JEKO) | IC50 (RH30) | IC50 (MEG01) | IC50 (MDA-MB -231) | IC50 (MCF-10A) | IC50 (MOLT3) | IC50 (HL60 MX2) | IC50 (A549) | IC50 (HELA N10) | IC50 (JOHO) | IC50 (H820) | IC50 (JAKL) | IC50 (MAWI) | IC50 (MESO47) | IC50 (MAWI B) | IC50 (JAQU) | IC50 (PAPR) | IC50 (H2444) | IC50 (GLHU) | also measured |
| --- | --- | --- | --- | --- | --- | --- | --- | --- | --- | --- | --- | --- | --- | --- | --- | --- | --- | --- | --- | --- | --- |
| CC1OC2CC(O)C1(O)c1c(O)c3c(c(O)c12)C(=O)C1=C(C3=O)[C@H](C)O[C@H]2CC(=O)O[C@@H]12 (stereo partly shown) [Granaticin A, granaticin A] | 140 nM | 40 nM | 130 nM | 170 nM | 470 nM | 260 nM | 30 nM | 110 nM | 280 nM | 1270 nM | 880 nM | 90 nM | 50 nM | 720 nM | 610 nM | 420 nM | 50 nM | 990 nM | 310 nM | 260 nM | IC50 (JABR): 210 nM; IC50 (ALL3): 140 nM; IC50 (H460): 390 nM; IC50 (MIHA): 300 nM; IC50 (H1975): 120 nM; IC50 (SKMEL28): 540 nM; IC50 (H1734): 240 nM; IC50 (HCC827): 280 nM; IC50 (PC9): 300 nM; IC50 (H2030): 490 nM; IC50 (Y79): 60 nM; IC50 (HTB15): 650 nM; IC50 (NCEB1): 330 nM; IC50 (HPLD1): 180 nM; IC50 (K562): 120 nM |
| CC1OC2CC(O[C@H]3CC[C@H](O)[C@H](C)O3)C1(O)c1c(O)c3c(c(O)c12)C(=O)C1=C(C3=O)[C@H](C)O[C@H]2CC(=O)O[C@@H]12 (stereo partly shown) [Granaticin B, granaticin B] | 90 nM | 20 nM | 80 nM | 80 nM | 290 nM | 240 nM | 10 nM | 70 nM | 90 nM | 970 nM | 170 nM | 50 nM | 10 nM | 180 nM | 380 nM | 160 nM | 10 nM | 490 nM | 30 nM | 80 nM | IC50 (JABR): 50 nM; IC50 (ALL3): 30 nM; IC50 (H460): 80 nM; IC50 (MIHA): 40 nM; IC50 (H1975): 30 nM; IC50 (SKMEL28): 340 nM; IC50 (H1734): 40 nM; IC50 (HCC827): 120 nM; IC50 (PC9): 70 nM; IC50 (H2030): 220 nM; IC50 (Y79): 50 nM; IC50 (HTB15): 460 nM; IC50 (NCEB1): 260 nM; IC50 (HPLD1): 40 nM; IC50 (K562): 80 nM |
